According to PubChem BioAssay AID1963986 (Molecular Pharmacology Branch, DTP, NCI, 2024):
One block for each compound: values may come before it.

System: 171881-019-R-J1-PDC tumor spheroid viability
Assay: Anticancer human tumor 171881-019-R-J1-PDC patient-derived invasive breast carcinoma cell line growth inhibition [PI3K]
Conditions: spheroids with HUVEC and MSC; for IC50: curve of first compound; for viability, T/C: stronger effect = lower value
Text: Combinatorial screen of targeted agents with the PI3K inhibitors inavolisib, alpelisib, duvelisib, and copanlisib in multi-cell type tumor spheroids
A high-throughput screen of multi-cell type tumor spheroids was designed to identify active combinations of targeted small molecules and PI3K pathway inhibitors. Complex spheroids include a stromal component modeled by human endothelial cells (HUVEC) and fibroblasts modeled by human mesenchymal stem cells (MSCs). The concentration ranges selected for each drug and investigational agent were based upon clinically achievable concentrations if the clinical Cmax of the agent was known.
Compounds. The drugs and investigational agents: inavolisib (NSC800729), alpelisib (NSC765974), duvelisib (NSC772469), copanlisib (NSC816437), ipatasertib (NSC767898), afuresertib (NSC778305), talazoparib (NSC767125), sapanisertib (NSC764658), selumetinib (NSC741078), tovorafenib (DAY101, NSC766906), vemurafenib (NSC761431), ravoxertinib (NSC781343), sotorasib (NSC818433), MRTX1133 (NSC 836407), abemaciclib (NSC 768073), palbociclib (NSC758247), venetoclax (NSC 766270), SY5609 (NSC837396), enzalutamide (NSC755605), and darolutamide (NSC825331), were obtained from the National Cancer Institute (NCI) Developmental Therapeutics Program Chemical Repository. The FDA-approved anticancer drug set is available from the NCI Developmental Therapeutics Program. […] The stock solutions were prepared in dimethyl sulfoxide (DMSO, Sigma-Aldrich, St. Louis, MO, cat. D2650) at 800-fold the tested concentration and stored at -70 degrees C prior to their use. All drugs and investigational agents were tested over a range starting from a high concentration at or near the clinical Cmax and decreasing in half-log increments. If the clinical Cmax for an agent had not been determined, the highest concentration tested was 10 microM.
Cell Culture. All cells were maintained in an incubator at 37 degrees C and 5% CO2 with 95% humidity. The PDC lines were cultured according to standard operating procedures established by the NCI PDMR (https://pdmr.cancer.gov/sops/default.htm). All PDCs were thawed and cultured in Matrigel-coated flasks prepared with a working solution of 1X Ham's F-12 nutrient mix, without supplementation (Invitrogen, Waltham, MA, cat. 11765054), 100 U/mL penicillin-streptomycin (Invitrogen, cat. 15140122), and 2.5% Matrigel (Corning Inc., Corning, NY, cat. 354248) for the first three passages. The 354836-022-R-J1-PDC, 475296-252-R-J1-PDC, and 997726-040-R-J2-PDC lines were cultured in 6A media, which includes advanced DMEM/F-12 (Thermo Fisher Scientific, cat. 12634028), 10 mM HEPES (Thermo Fisher Scientific, cat. 15630080), 1X GlutaMAX supplement (Thermo Fisher Scientific, cat. 35050061), 0.1 mg/mL primocin (InvivoGen, San Diego, CA, cat. ant-pm-2), 10% defined fetal bovine serum, heat inactivated (HyClone Laboratories Inc., Logan, UT, cat. SH30070.03HI), 50% L-WRN conditioned media (ATCC, cat. CRL-3276), 1.25 mM N-Acetyl-L-cysteine (Sigma-Aldrich, cat. A9165), 10 mM nicotinamide (Sigma-Aldrich, cat. N0636), 1X B-27 supplement (Thermo Fisher Scientific, cat. 17504044), 1X N-2 supplement (Thermo Fisher Scientific, cat. 17502048), and 10 microM Y-27632 dihydrochloride (Tocris Bioscience, Bristol, United Kingdom, cat. 1254). The 624824-186-R-J2-PDC line was cultured in 6C/Colon 1B media, which includes all 6A media components plus 50 ng/mL human EGF recombinant protein (Thermo Fisher Scientific, cat. PHG0311). […]

[1] = second compound 0.0316 µM, first compound 0.0316 µM
[2] = second compound 0.0316 µM, first compound 0.1 µM
[3] = second compound 0.0316 µM, first compound 0.316 µM
[4] = second compound 0.0316 µM, first compound 1 µM
[5] = second compound 0.0316 µM, first compound 3.16 µM
[6] = second compound 0.0316 µM, first compound 10 µM
[7] = second compound 0.1 µM, first compound 0.0316 µM
[8] = second compound 0.1 µM, first compound 0.1 µM
[9] = second compound 0.1 µM, first compound 0.316 µM
[10] = second compound 0.1 µM, first compound 1 µM
[11] = second compound 0.1 µM, first compound 3.16 µM
[12] = second compound 0.1 µM, first compound 10 µM
[13] = second compound 0.316 µM, first compound 0.0316 µM
[14] = second compound 0.316 µM, first compound 0.1 µM
[15] = second compound 0.316 µM, first compound 0.316 µM
[16] = second compound 0.316 µM, first compound 1 µM
[17] = second compound 0.316 µM, first compound 3.16 µM
[18] = second compound 0.316 µM, first compound 10 µM
[19] = second compound 1 µM, first compound 0.0316 µM
[20] = second compound 1 µM, first compound 0.1 µM
[21] = second compound 1 µM, first compound 0.316 µM
[22] = second compound 1 µM, first compound 1 µM
[23] = second compound 1 µM, first compound 3.16 µM
[24] = second compound 1 µM, first compound 10 µM
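Also: spheroids exposed to compound for 7 days before viability read.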
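For viability, T/C in this document: 100% = DMSO vehicle-treated spheroids.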

IC50 (second compound 0.00316 µM): 5.73 µM | IC50 (second compound 0.01 µM): 4.52 µM | IC50 (second compound 0.0316 µM): < 0.0316 µM | IC50 (second compound 0.1 µM): < 0.0316 µM | IC50 (second compound 0.316 µM): < 0.0316 µM | IC50 (second compound 1 µM): < 0.0316 µM
SMILES: CCCS(=O)(=O)Nc1ccc(F)c(C(=O)c2c[nH]c3ncc(-c4ccc(Cl)cc4)cc23)c1F + COc1c(OCCCN2CCOCC2)ccc2c3n(c(=NC(=O)c4cnc(N)nc4)nc12)CCN3
viability, T/C (second compound 0.00316 µM, first compound 0.0316 µM): 70.6% | viability, T/C (second compound 0.00316 µM, first compound 0.1 µM): 81.9% | viability, T/C (second compound 0.00316 µM, first compound 0.316 µM): 94.3% | viability, T/C (second compound 0.00316 µM, first compound 1 µM): 108% | viability, T/C (second compound 0.00316 µM, first compound 3.16 µM): 93.7% | viability, T/C (second compound 0.00316 µM, first compound 10 µM): 12.9% | viability, T/C (second compound 0.01 µM, first compound 0.0316 µM): 53.8% | viability, T/C (second compound 0.01 µM, first compound 0.1 µM): 60% | viability, T/C (second compound 0.01 µM, first compound 0.316 µM): 67.2% | viability, T/C (second compound 0.01 µM, first compound 1 µM): 83.6% | viability, T/C (second compound 0.01 µM, first compound 3.16 µM): 76.5% | viability, T/C (second compound 0.01 µM, first compound 10 µM): 9.83% | viability, T/C [1]: 29% | viability, T/C [2]: 29.3% | viability, T/C [3]: 32% | viability, T/C [4]: 40.5% | viability, T/C [5]: 45.8% | viability, T/C [6]: 5.59% | viability, T/C [7]: 9.3% | viability, T/C [8]: 10.5% | viability, T/C [9]: 10.9% | viability, T/C [10]: 13.9% | viability, T/C [11]: 17.3% | viability, T/C [12]: 2.6% | viability, T/C [13]: 2.18% | viability, T/C [14]: 2.42% | viability, T/C [15]: 3.05% | viability, T/C [16]: 2.63% | viability, T/C [17]: 3.95% | viability, T/C [18]: 2.09% | viability, T/C [19]: 1.32% | viability, T/C [20]: 1.32% | viability, T/C [21]: 1.47% | viability, T/C [22]: 1.16% | viability, T/C [23]: 1.64% | viability, T/C [24]: 3.34%

IC50 (second compound 0.0316 µM): 9.73 µM | IC50 (second compound 0.1 µM): 9.44 µM | IC50 (second compound 0.316 µM): 2.35 µM | IC50 (second compound 1 µM): < 0.0316 µM | IC50 (second compound 3.16 µM): < 0.0316 µM | IC50 (second compound 10 µM): < 0.0316 µM
SMILES: C=CC(=O)N1CCN(c2nc(=O)n(-c3c(C)ccnc3C(C)C)c3nc(-c4c(O)cccc4F)c(F)cc23)C(C)C1 (centres undefined) + Cc1nc(NC(=O)N2CCCC2C(N)=O)sc1-c1ccnc(C(C)(C)C(F)(F)F)c1
viability, T/C [1]: 92.6% | viability, T/C [2]: 83.4% | viability, T/C [3]: 98.4% | viability, T/C [4]: 92% | viability, T/C [5]: 79.6% | viability, T/C [6]: 48.8% | viability, T/C [7]: 84.1% | viability, T/C [8]: 73.2% | viability, T/C [9]: 86.3% | viability, T/C [10]: 87.4% | viability, T/C [11]: 86.9% | viability, T/C [12]: 48.2% | viability, T/C [13]: 55% | viability, T/C [14]: 50.9% | viability, T/C [15]: 56.8% | viability, T/C [16]: 60.4% | viability, T/C [17]: 57.9% | viability, T/C [18]: 34.7% | viability, T/C [19]: 29.8% | viability, T/C [20]: 32.3% | viability, T/C [21]: 32.1% | viability, T/C [22]: 32.4% | viability, T/C [23]: 33% | viability, T/C [24]: 19.4% | viability, T/C (second compound 3.16 µM, first compound 0.0316 µM): 14.7% | viability, T/C (second compound 3.16 µM, first compound 0.1 µM): 15.2% | viability, T/C (second compound 3.16 µM, first compound 0.316 µM): 14.5% | viability, T/C (second compound 3.16 µM, first compound 1 µM): 15.2% | viability, T/C (second compound 3.16 µM, first compound 3.16 µM): 16.8% | viability, T/C (second compound 3.16 µM, first compound 10 µM): 8.95% | viability, T/C (second compound 10 µM, first compound 0.0316 µM): 3.67% | viability, T/C (second compound 10 µM, first compound 0.1 µM): 3.63% | viability, T/C (second compound 10 µM, first compound 0.316 µM): 4.33% | viability, T/C (second compound 10 µM, first compound 1 µM): 4.28% | viability, T/C (second compound 10 µM, first compound 3.16 µM): 4.51% | viability, T/C (second compound 10 µM, first compound 10 µM): 2.34%
